From patent US20240116879A1, “AMILORIDE DERIVATIVES AND METHODS OF USING SAME FOR THE TREATMENT OF VIRAL INFECTIONS” (priority 2020, published 2024)

How the values were obtained:
[1] = tested on: human coronavirus OC43; assay type: cell-based; settings: for effect on virus titer (in words): 50 μM or 100 μM, Vero E6, MOI=1, 24 hours at 33° C.; for reduced virus titer: 100 μM, Vero E6, MOI=1, 24 hr, plaque formation
[2] = tested on: SARS-CoV-2; assay: microbe, parasite or virus in culture; assay type: cell-based; settings: Severe acute respiratory syndrome coronavirus 2, Vero C1008; Vero E6, MOI 0.1, within 24 hours of infection; read-out: approximate IC50, cell-free viral RNA levels
[3] = tested on: SARS-CoV-2; assay type: cell-based; settings: for viral titer compared to DMSO (TCID50 assay): 10 μM and 50 μM, MOI 0.1, 3 days; for antiviral activity compared to parent scaffold DMA-01: Vero E6 infected with wild-type SARS-CoV-2
[4] = Cytotoxicity MTT assay in Vero E6 cells; assay type: cell-based, African green monkey; settings: African green monkey, Vero E6 cells; Vero E6, 96 hrs, 33° C., MTT
Protocol: (§1) Cytotoxicity Assays: Various concentrations of DMAs were added to Vero E6 cells in culture. The cells were incubated at 33° C. for 96 hrs. Cell viability was determined by MTT assay and measured at 570 nm according to the manufacturer's instructions (EMD Millipore). All experiments were performed in triplicate. The concentration of DMAs required to reduce cell viability to 50% of the control cells was expressed as CC50.

[5] = tested on: Vero E6 cells; assay: Cytotoxicity MTT assay in Vero E6 cells; assay type: cell-based, African green monkey; settings: <10 μM, 96 hour, Vero E6
Protocol: as §1

[6] = tested on: SARS-CoV-2 5′-end and 3′UTR; assay type: cell-based
[7] = tested on: SARS-CoV-2 SL1 RNA; assay: Indicator displacement assay (IDA), SL1; assay type: binding; settings: RiboGreen displacement, Tris buffer pH 7.4
[8] = tested on: SARS-CoV-2 SL4 RNA; assay: Indicator displacement assay (IDA), SL4; assay type: binding; settings: RiboGreen displacement, Tris buffer pH 7.4
[9] = tested on: SARS-CoV-2 SL6 RNA; assay: Indicator displacement assay (IDA), SL6; assay type: binding; settings: RiboGreen displacement, Tris buffer pH 7.4
[10] = tested on: VeroE6 cells; settings: uninfected VeroE6, 3 days of treatment, 10 μM and 50 μM
[11] = tested on: SARS-CoV-2 stem loop constructs (SL1, SL4, SL5a, SL5b, SL6); assay type: binding; settings: RiboGreen displacement, Tris buffer pH 7.4

| Structure (SMILES) | effect on virus titer (in words) [1] | reduced virus titer [1] | IC50 [2] | viral titer compared to DMSO (TCID50 assay) [3] | antiviral activity compared to parent scaffold DMA-01 [3] | CC50 at 96 h [4] | cell viability [5] | reduction of FLuc activity [6] | affinity for SL1 (IDA) [7] | affinity for SL4 (IDA) [8] | affinity for SL6 (IDA) [9] | cellular viability as measured by ATP content [10] | binding affinity against any of the constructs (IDA) [11] |
| --- | --- | --- | --- | --- | --- | --- | --- | --- | --- | --- | --- | --- | --- |
| CN(C)c1nc(N)c(C(=O)NC(=N)N)nc1C#Cc1ccccc1 [DMA-135] | reduce virus titer in a dose-dependent manner | ~1,000 fold | ~10 µM | dose-dependent reduction in viral titer | improved antiviral activity | > 100 µM | do not significantly reduce cell viability | approximately 50% | weak affinity | weak affinity | weak affinity | without measurable effect on cellular viability |  |
| CN(C)c1nc(N)c(C(=O)N=C(N)N)nc1Cl [DMA-1, dimethylamiloride, reference compound] | no activity |  |  |  |  |  |  |  |  |  |  |  | did not show binding affinity |
| CN(C)c1nc(N)c(C(=O)NC(=N)N)nc1-c1ccccc1 [DMA-132] | reduce virus titer in a dose-dependent manner | ~1,000 fold |  | dose-dependent reduction in viral titer | improved antiviral activity | > 100 µM | do not significantly reduce cell viability | approximately 50% |  |  |  | without measurable effect on cellular viability | did not show binding affinity |
| CN(C)c1nc(N)c(C(=O)NC(=N)N)nc1-c1ccc(-c2ccccc2)cc1 [DMA-155] | reduce virus titer in a dose-dependent manner | ~1,000 fold | ~16 µM |  | improved antiviral activity | ~90 µM | do not significantly reduce cell viability | ~90% |  |  | strong binder with highest affinity for SL6 |  |  |
